Reference: patent publication US20260083865A1, “PROSTATE SPECIFIC MEMBRANE ANTIGEN (PSMA) LIGANDS AND USE THEREOF” (priority 2022, published 2026)
Numbered stars: 1 amine (or outer) side, 2 acyl side, 3 side chain; on linkers, the order of the positions; unused ones are H or OH. Bridge positions count the residues as written; N and C are the ends. Square brackets hold non-standard residues; d marks the D form. Peptide text beside a SMILES is read from it. * marks the point of attachment. X14 = NC(=O)[C@H](CCCCNC(=O)CCCC[C@@H]1SC[C@@H]2NC(=O)N[C@@H]21)NC(=O)CCC(=O)NCCCOCCOCCOCCCNC(=O)CCC(=O)NCCCOCCOCCOCCCN*; DOTA = O=C(O)CN1CCN(CC(=O)O)CCN(CC(=O)*)CCN(CC(=O)O)CC1; Arg(NO2) = N=C(NCCC[C@H](N)C(=O)O)N[N+](=O)[O-]; Arg(Me2a) = CN(C)C(=N)NCCC[C@H](N)C(=O)O; Phe(4-Cl) = N[C@@H](Cc1ccc(Cl)cc1)C(=O)O; 1Nal = N[C@@H](Cc1cccc2ccccc12)C(=O)O; Arg(Me) = CNC(=N)NCCC[C@H](N)C(=O)O; 2Pal = N[C@@H](Cc1ccccn1)C(=O)O; 3Pal = N[C@@H](Cc1cccnc1)C(=O)O; X1 = O=C(CC1CCN([*:1])CC1)[*:2]; Cit = NC(=O)NCCC[C@H](N)C(=O)O; Lys(Me) = CNCCCC[C@H](N)C(=O)O; d(αMeS) = C[C@@](N)(CO)C(=O)O; Tle = CC(C)(C)[C@H](N)C(=O)O; Aib = CC(C)(N)C(=O)O

What was measured:
[1] = target: T1, Fc-fusion protein of human PSMA (hPSMA-Fc) (Homo sapiens, UniProt Q04609); test: Surface plasmon resonance assay (Biacore T200, single cycle kinetic); type: binding; conditions: SPR, hPSMA-Fc, single cycle kinetic, 25° C.; category; read-out: pKD CAT (converted)
T1 construct: purchased Acro Biosystems PSA-H5264
Summary of the method: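 KD, expressed as pKD, came from 1:1 Langmuir fits of reference- and buffer-blank-subtracted SPR data. The runs were single-cycle kinetics at 25° C in HBST/0.1% DMSO over human PSMA-Fc, captured to ~1000 RU on a peptide-coated CM5 surface and regenerated with 10 mM glycine pH 1.5.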

[2] = target: T2, PSMA-expressing C4-2 cells (Homo sapiens, UniProt Q04609); test: FACS binding assay (competition with 50 nM PSM-0183); conditions: FACS binding, C4-2 cells, competition with 50 nM PSM-0183; category; read-out: pIC50 [C4-2] CAT (converted)
T2 construct: PSMA-expressing C4-2 cells (ATCC, Cat. No. CRL-3314) were cultured in RPMI-1640; host or cells: C4-2 cells
Summary of the method: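 Competition format: fluorescent tracer PSM-0183 (50 nM) displaced from PSMA on C4-2 cells by a test compound titration over 1 h at 4 °C. Bound tracer was quantified as flow-cytometric AF488 median fluorescence after washing. Four-parameter logistic fits of MFI data gave IC50 and pIC50.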

T1 sequence (Q04609 44-750 limits assumed): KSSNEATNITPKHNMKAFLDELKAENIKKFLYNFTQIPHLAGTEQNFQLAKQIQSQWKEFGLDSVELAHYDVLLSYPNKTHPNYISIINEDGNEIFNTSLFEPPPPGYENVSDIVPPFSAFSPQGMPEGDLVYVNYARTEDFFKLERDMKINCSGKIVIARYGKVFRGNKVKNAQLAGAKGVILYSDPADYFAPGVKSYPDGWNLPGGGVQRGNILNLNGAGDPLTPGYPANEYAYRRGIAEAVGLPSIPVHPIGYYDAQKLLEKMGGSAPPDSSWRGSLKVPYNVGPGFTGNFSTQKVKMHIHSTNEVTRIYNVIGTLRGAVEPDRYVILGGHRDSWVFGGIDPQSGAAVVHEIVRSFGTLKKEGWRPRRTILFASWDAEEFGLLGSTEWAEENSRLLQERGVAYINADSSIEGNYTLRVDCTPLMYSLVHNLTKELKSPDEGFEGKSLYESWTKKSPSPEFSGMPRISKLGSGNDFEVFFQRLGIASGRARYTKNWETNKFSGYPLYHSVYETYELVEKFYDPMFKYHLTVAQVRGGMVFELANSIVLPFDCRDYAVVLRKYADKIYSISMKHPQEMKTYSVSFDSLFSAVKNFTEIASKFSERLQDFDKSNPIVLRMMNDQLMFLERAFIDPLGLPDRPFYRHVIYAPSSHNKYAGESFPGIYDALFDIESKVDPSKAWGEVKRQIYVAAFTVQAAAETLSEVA
T2 sequence (Q04609 whole entry): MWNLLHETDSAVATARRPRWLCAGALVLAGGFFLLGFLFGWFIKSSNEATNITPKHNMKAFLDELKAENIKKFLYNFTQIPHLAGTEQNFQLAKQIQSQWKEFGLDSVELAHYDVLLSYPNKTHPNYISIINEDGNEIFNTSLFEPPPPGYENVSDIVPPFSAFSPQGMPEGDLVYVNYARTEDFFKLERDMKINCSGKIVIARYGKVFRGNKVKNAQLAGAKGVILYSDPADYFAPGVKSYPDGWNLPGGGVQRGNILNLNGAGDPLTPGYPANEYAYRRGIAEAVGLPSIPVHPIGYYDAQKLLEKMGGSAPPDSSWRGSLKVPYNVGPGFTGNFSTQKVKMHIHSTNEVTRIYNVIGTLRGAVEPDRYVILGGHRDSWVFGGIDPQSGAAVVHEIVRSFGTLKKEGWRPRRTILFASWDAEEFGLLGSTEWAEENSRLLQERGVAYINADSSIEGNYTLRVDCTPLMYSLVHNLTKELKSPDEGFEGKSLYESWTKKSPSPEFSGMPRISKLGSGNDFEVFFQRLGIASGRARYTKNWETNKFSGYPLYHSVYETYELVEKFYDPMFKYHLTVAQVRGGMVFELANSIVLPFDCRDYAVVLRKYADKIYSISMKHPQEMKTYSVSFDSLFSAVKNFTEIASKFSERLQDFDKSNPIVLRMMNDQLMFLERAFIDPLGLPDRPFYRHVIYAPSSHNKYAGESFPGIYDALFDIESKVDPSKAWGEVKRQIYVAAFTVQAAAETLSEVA

SMILES	Kd [1] [nM]	IC50 [2] [nM]
CNCCCC[C@@H]1NC(=O)[C@@H](NC(=O)[C@H](Cc2ccc(Cl)cc2)NC(=O)C(C)(C)NC(=O)[C@@H](NC(=O)CC2CCN(C(=O)CN3CCN(CC(=O)O)CCN(CC(=O)O)CCN(CC(=O)O)CC3)CC2)[C@@H](C)O)CSSC[C@@H](C(=O)N[C@H](C(=O)N[C@H](C(N)=O)[C@@H](C)O)C(C)(C)C)NC(=O)[C@H](CC(N)=O)NC(=O)C(C)(C)NC(=O)[C@H](CCCNC(=N)N(C)C)NC1=O [PSM-0247, DOTA-Cmp-Thr-Aib-Pcf-[Cys-Lys(Me)-RMe2-Aib-Asn-Cys]-Tle-Thr-NH2] ({DOTA}-[X1]T[Aib][Phe(4-Cl)]C[Lys(Me)][Arg(Me2a)][Aib]NC[Tle]T-NH2; disulfide 5-10)	< 12.6	< 200
C[C@@H](O)[C@H](NC(=O)[C@@H](NC(=O)[C@@H]1CSSC[C@H](NC(=O)[C@H](Cc2ccc(Cl)cc2)NC(=O)C(C)(C)NC(=O)CC2CCN(C(=O)CN3CCN(CC(=O)O)CCN(CC(=O)O)CCN(CC(=O)O)CC3)CC2)C(=O)N[C@@H](CCCCN)C(=O)N[C@@H](CCCNC(=N)N)C(=O)NC(C)(C)C(=O)N[C@@H](CC(N)=O)C(=O)N1)C(C)(C)C)C(N)=O [PSM-0248, DOTA-Cmp-Aib-Pcf-[Cys-Lys-Arg-Aib-Asn-Cys]-Tle-Thr-NH2] ({DOTA}-[X1][Aib][Phe(4-Cl)]CKR[Aib]NC[Tle]T-NH2; disulfide 4-9)	12.6 to 126	< 200
CC(=O)N[C@H](C(=O)NC(C)(C)C(=O)N[C@@H](Cc1cccc2ccccc12)C(=O)N[C@H]1CSSC[C@@H](C(=O)N[C@H](C(=O)N[C@H](C(=O)N[C@@H](CC(=O)O)C(N)=O)[C@@H](C)O)C(C)(C)C)NC(=O)[C@H](CC(N)=O)NC(=O)C(C)(C)NC(=O)[C@H](CCCNC(=N)N)NC(=O)[C@H](CCCCN)NC1=O)[C@@H](C)O [PSM-0249, Ac-Thr-Aib-1Ni-[Cys-Lys-Arg-Aib-Asn-Cys]-Tle-Thr-Asp-NH2] (Ac-T[Aib][1Nal]CKR[Aib]NC[Tle]TD-NH2; disulfide 4-9)	< 12.6	< 200
C[C@@H](O)[C@H](NC(=O)CC1CCN(C(=O)CN2CCN(CC(=O)O)CCN(CC(=O)O)CCN(CC(=O)O)CC2)CC1)C(=O)NC(C)(C)C(=O)N[C@@H](Cc1ccc(Cl)cc1)C(=O)N[C@H]1CSSC[C@@H](C(=O)N[C@H](C(=O)N[C@H](C(=O)NCCCOCCOCCOCCCNC(=O)CCC(=O)NCCCOCCOCCOCCCNC(=O)CCC(=O)N[C@@H](CCCCNC(=O)CCCC[C@@H]2SC[C@@H]3NC(=O)N[C@@H]32)C(N)=O)[C@@H](C)O)C(C)(C)C)NC(=O)[C@H](CC(N)=O)NC(=O)C(C)(C)NC(=O)[C@H](CCCNC(=N)N)NC(=O)[C@H](CCCCN)NC1=O [PSM-0250, DOTA-Cmp-Thr-Aib-Pcf-[Cys-Lys-Arg-Aib-Asn-Cys]-Tle-Thr-Ttds-Ttds-Lys(Bio)-NH2] ({DOTA}-[X1]T[Aib][Phe(4-Cl)]CKR[Aib]NC[Tle]T-X14; disulfide 5-10)	< 12.6	200 to 1260
CC(=O)N[C@H](C(=O)NC(C)(C)C(=O)N[C@@H](Cc1ccccc1)C(=O)N[C@H]1CSSC[C@@H](C(=O)N[C@H](C(=O)N[C@H](C(=O)N2CCC(CC(=O)N[C@H](CCCCNC(=O)CN3CCN(CC(=O)O)CCN(CC(=O)O)CCN(CC(=O)O)CC3)C(N)=O)CC2)[C@@H](C)O)C(C)(C)C)NC(=O)[C@H](CC(N)=O)NC(=O)C(C)(C)NC(=O)[C@H](CCCNC(N)=O)NC(=O)[C@H](CCCCN)NC1=O)[C@@H](C)O [PSM-0252, Ac-Thr-Aib-Phe-[Cys-Lys-Cit-Aib-Asn-Cys]-Tle-Thr-Cmp-lys(DOTA)-NH2] (Ac-T[Aib]FCK[Cit][Aib]NC[Tle]T[X1][dK](DOTA)-NH2; disulfide 4-9)	> 501	200 to 1260

Further lines, results first:

Kd [1] [nM]	IC50 [2] [nM]	SMILES
126 to 501	200 to 1260	CC(=O)N[C@H](C(=O)NC(C)(C)C(=O)N[C@@H](Cc1ccccc1)C(=O)N[C@H]1CSSC[C@@H](C(=O)N[C@H](C(=O)N[C@H](C(=O)N[C@@H](CC(=O)O)C(N)=O)[C@@H](C)O)C(C)(C)C)NC(=O)[C@H](CC(N)=O)NC(=O)C(C)(C)NC(=O)[C@H](CCC(=O)O)NC(=O)[C@H](CCCCN)NC1=O)[C@@H](C)O [PSM-0253, Ac-Thr-Aib-Phe-[Cys-Lys-Glu-Aib-Asn-Cys]-Tle-Thr-Asp-NH2] (Ac-T[Aib]FCKE[Aib]NC[Tle]TD-NH2; disulfide 4-9)
< 12.6	< 200	CNCCCC[C@@H]1NC(=O)[C@@H](NC(=O)[C@H](Cc2ccc(Cl)cc2)NC(=O)C(C)(C)NC(=O)[C@@H](NC(=O)CC2CCN(C(=O)CN3CCN(CC(=O)O)CCN(CC(=O)O)CCN(CC(=O)O)CC3)CC2)[C@@H](C)O)CSSC[C@@H](C(=O)N[C@H](C(=O)N[C@H](C(N)=O)[C@@H](C)O)C(C)(C)C)NC(=O)[C@H](CC(N)=O)NC(=O)C(C)(C)NC(=O)[C@H](CCCNC(=N)N[N+](=O)[O-])NC1=O [PSM-0254, DOTA-Cmp-Thr-Aib-Pcf-[Cys-Lys(Me)-Eew-Aib-Asn-Cys]-Tle-Thr-NH2] ({DOTA}-[X1]T[Aib][Phe(4-Cl)]C[Lys(Me)][Arg(NO2)][Aib]NC[Tle]T-NH2; disulfide 5-10)
> 501	1260 to 3160	C[C@@H](O)[C@H](NC(=O)[C@@H](NC(=O)[C@@H]1CSSC[C@H](NC(=O)[C@H](Cc2cccnc2)NC(=O)C(C)(C)NC(=O)[C@@H](NC(=O)CC2CCN(C(=O)CN3CCN(CC(=O)O)CCN(CC(=O)O)CCN(CC(=O)O)CC3)CC2)[C@@H](C)O)C(=O)N[C@@H](CCCCN)C(=O)N[C@@H](CCCNC(N)=O)C(=O)NC(C)(C)C(=O)N[C@@H](CC(N)=O)C(=O)N1)C(C)(C)C)C(N)=O [PSM-0255, DOTA-Cmp-Thr-Aib-Mpa-[Cys-Lys-Cit-Aib-Asn-Cys]-Tle-Thr-NH2] ({DOTA}-[X1]T[Aib][3Pal]CK[Cit][Aib]NC[Tle]T-NH2; disulfide 5-10)
< 12.6	< 200	C[C@@H](O)[C@H](NC(=O)[C@@H](NC(=O)[C@@H]1CSSC[C@H](NC(=O)[C@H](Cc2ccc(Cl)cc2)NC(=O)[C@@](C)(CO)NC(=O)[C@@H](NC(=O)CC2CCN(C(=O)CN3CCN(CC(=O)O)CCN(CC(=O)O)CCN(CC(=O)O)CC3)CC2)[C@@H](C)O)C(=O)N[C@@H](CCCCN)C(=O)N[C@@H](CCCNC(=N)N)C(=O)NC(C)(C)C(=O)N[C@@H](CC(N)=O)C(=O)N1)C(C)(C)C)C(N)=O [PSM-0256, DOTA-Cmp-Thr-ams-Pcf-[Cys-Lys-Arg-Aib-Asn-Cys]-Tle-Thr-NH2] ({DOTA}-[X1]T[d(αMeS)][Phe(4-Cl)]CKR[Aib]NC[Tle]T-NH2; disulfide 5-10)
12.6 to 126	200 to 1260	CNCCCC[C@@H]1NC(=O)[C@@H](NC(=O)[C@H](Cc2ccccn2)NC(=O)C(C)(C)NC(=O)[C@@H](NC(=O)CC2CCN(C(=O)CN3CCN(CC(=O)O)CCN(CC(=O)O)CCN(CC(=O)O)CC3)CC2)[C@@H](C)O)CSSC[C@@H](C(=O)N[C@H](C(=O)N[C@H](C(N)=O)[C@@H](C)O)C(C)(C)C)NC(=O)[C@H](CC(N)=O)NC(=O)C(C)(C)NC(=O)[C@H](CCCNC(=N)NC)NC1=O [PSM-0257, DOTA-Cmp-Thr-Aib-Opa-[Cys-Lys(Me)-Arg(Me)-Aib-Asn-Cys]-Tle-Thr-NH2] ({DOTA}-[X1]T[Aib][2Pal]C[Lys(Me)][Arg(Me)][Aib]NC[Tle]T-NH2; disulfide 5-10)
